Results on three molecules are retold here after US7554012B2, “Plants and plant cells exhibiting resistance to AMPA, and methods for making the same” (priority 1998, dated 2009).

For orientation: Km means the substrate concentration at which the rate is half of its maximum.

Read-outs that look alike come from different tables or passages of the source.

The target in assay [1] is PhnO enzyme (Escherichia coli, UniProt P16691, P2A).
Description: The apparent Km of PhnO for the substrate acetyl-CoA was determined in similar experiments. After several attempts to obtain end point kinetics, it was determined that the turnover number was too low to be reliable at AMPA concentrations of about 30 mM and enzyme amounts of about 1-10 ng. An alternative approach was tried using tritium labeled acetyl-CoA. The specific activity of the label was about 40× higher than with [^14C], providing a gain in sensitivity that allowed for the determination of the apparent Km of PhnO for Acetyl-CoA. The [^3H]-acetyl-CoA (Amersham, Inc.) specific activity was 360 mCi/mg or 250 μCi/ml. […] This was accomplished by adjusting the concentration of KH2PO4 buffer (pH 5.5) to 40 mM with a flow rate of 1 ml per minute over an AX100 weak anion exchange column. Each sample was reacted with PhnO and 30 mM AMPA for five minutes at 37° C. and quenched with 100 mM NaOAc pH 4.4 in ethanol, then analyzed by HPLC. [^3H]-acetyl-CoA substrate ranged from 25 micromolar to 1.3 mM in each reaction along with about 5 ng PhnO, 50 mM Tris pH 7.5, 1 mM MnCl2, 1 mM MgCl2, and 30 mM AMPA. Samples were analyzed by HPLC to determine the amounts of N-[^3H]-acetyl-AMPA produced, and [^3H]-acetyl-CoA remaining.
In assay [2] the target is T1, purified PhnO protein (Escherichia coli, UniProt P16691, P2A).
T1 construct: made in house; host or cells: E. coli JM101 carrying pMON15032 (recA promoter, nalidixic acid induction)
Description: AMPA transacylase acyl-CoA acyl donor specificity, HPLC. It is filed as biochemical, E. coli. The settings on record: for [^14C]-AMPA % Conversion: 5 minutes 30° C.; for % Activity: 1 mM acetyl-CoA = 100% reference. As for the experimental part:
PhnO was purified from a one liter Luria Bertani broth culture of E. coli JM101 expressing a recombinant phnO gene from pMON15032 after nalidixic acid induction for three hours at 37° C. Cells were harvested by centrifugation and resuspended in 40 ml cold Tris buffer (0.1 M Tris-HCl pH 8) and placed on ice. The cell suspension was brought to 1 mM DTT and 0.5 mM PMSF. The suspension was lysed by 2 passages through a prechilled French pressure cell at 1,100 psi, centrifuged at 12,000 g (10,000 rpm in an Sorvall SA600 rotor) for 40 min at 4° C., then placed on ice. The cleared supernatants were poured into fresh 15 ml polypropylene tubes. The samples were split again into two equal portions and maintained at −80° C. until used further for purification of PhnO protein. 20 microliters of the soluble fraction was assayed for enzyme activity using the HPLC method described above in Example 2, except after terminating the assay with acid addition, the sample was stored at −80° C. A Sephacryl S200 column was prepared according to the manufacturers' instructions and equilibrated with a solution containing 20 mM Tris pH 8.0 and 0.5 mM MgCl2. The entire total soluble extract was layered over the top of the column bed after thawing on ice. Forty 9 ml fractions were collected from the column eluate, and thirty microliters of each fraction was analyzed by western blot using anti-PhnO antiserum after resolution on a 15% SDS-PAGE gel. Also, thirty microliters of each fraction was analyzed for AMPA acyl transferase activity using the method described in Example 2. […] These were represented by fractions 7 through 19 in this example, and were combined into a 100 ml volume, distributed into […] each containing 10 ml volumes, and stored at −80° C. for further use.
Anion exchange chromatography was used to determine the elution pattern of PhnO away from other contaminating proteins that co-elute during the Sephacryl S200 fractionation. One tube from the combined PhnO positive fractions was thawed on ice and injected into a 5/5 Mono-Q column pre-equilibrated with buffers A (one liter of 20 mM Tris-HCl pH 8.0 Mili-Q distilled deionized water) and B (one liter of 20 mM Tris-HCl pH 8.0, 1 M NaCl). The sample containing PhnO active protein was injected into the column and one milliliter fractions were collected. The column was washed for five minutes with a flow rate of 1.8 ml per minute Buffer A after loading the PhnO containing sample. At five minutes, Buffer B was added to the flow volume at 0.5 ml per minute for four minutes. Buffer B was ramped up to 22% of the flow volume at 10 minutes, 30% at 12 minutes, 36% at 13 minutes, 41% at 14 minutes, 46% at 15 minutes, 74% at 16 minutes, and 100% at 16 minutes through 22 minutes, at which point Buffer B flow was terminated and Buffer A was reinitiated at 100% to equilibrate the column. Ten microliter volumes from individual fractions collected from the Mono-Q column were analyzed by western blot and for transacylase activity as described in Example 2. […] Samples of this purified PhnO protein were used to determine enzyme's acyl donor substrate specificity.
Enzyme reactions were prepared as follows. […] A assay premix was prepared from which 45 microliters was used in each 100 microliter reaction. This 45 microliter premix sample consisted of 40 microliters distilled and deionized water, 2 microliters of 50 mM MgCl2, and 3 microliters of 1.3 mM [^14C]-AMPA (115,392 dpm per microliter). Reactions were initiated by mixing 40 microliters of 125 mM Tris-HCl pH 8.0, […] protein sample and 10 microliters acyl-CoA acyl donor compound in a microcentrifuge tube at room temperature. Each acyl-CoA acyl donor compound was prepared as a stock solution of 1 mM, 5 mM or 10 mM stocks. Each tube was then mixed with 45 microliters of the assay premix containing the [^14C]-AMPA […] substrate, mixed gently and transferred to a 30° C. water bath for 5 minutes. […]

Assay [3] concerns Tobacco callus. Description: Tobacco callus growth on plates with AMPA or N-acetyl AMPA. The assay is classed as cell-based, Nicotiana tabacum cv. "Samsun". Particulars: plates with 0.1 mM or 0.4 mM, up to three weeks. As for the experimental part: Tobacco callus was generated from leaf pieces of wild type Nicotiana tabacum cv. “Samsun” tobacco on MS104 plates (MS salts 4.3 g/l, sucrose 30 g/l, B5 vitamins 500X 2 ml/l, NAA 0.1 mg/l, and Bacto Agar […]). Callus tissue was applied to plates with or without AMPA and with or without N-acetyl AMPA. Plates contained AMPA or N-acetyl AMPA at concentrations of 0.1 mM or 0.4 mM. Plates were incubated for up to three weeks and monitored periodically.

The subject of assay [4] is Wheat immature embryos. Description: Wheat embryo germination assay. The assay is classed as in vivo. The settings on record: for Germinating root length / Germinating shoot length: ten days. As for the experimental part: Wheat immature embryos were exposed to different concentrations of AMPA and N-acetyl-AMPA in a wheat embryo germination assay. MMSO base media was prepared containing 40 grams per liter maltose, 2 grams per liter GELRITE™, MS salts, and vitamins. Salts, vitamins, and maltose were dissolved in 3500 ml water and the pH was adjusted to 5.8. 500 ml was dispensed into a separate bottle along with 1 gram of GELRITE™ and autoclaved for 17 minutes. After the medium had cooled to about 45° C., AMPA or N-acetyl-AMPA was added to a defined concentration. The mixture was poured into six square Sundae cups under sterile conditions and allowed to solidify.
Immature wheat embryos were isolated from twenty day old seedlings (after anther formation) and inoculated into each MMSO media. Each Sundae cup contained nine immature embryo's. Three separate plates were used for each concentration of AMPA (0, 0.1, 0.15, 0.2, 0.25, 0.3, and 1.0 mM) or N-acetyl-AMPA (0, 0.1, 0.3, 1.0, and 3.0 mM). Sundae cups were incubated for ten days and the length of roots and shoots were determined and compared.

Assay [5] concerns AMPA acyltransferase activity. Briefly: AMPA acyltransferase HPLC assay of bacterial lysates. The assay is classed as biochemical. The settings on record: lysates of induced E. coli JM101 transformants.
The mark [6] stands for this setting: any concentration tested (0.1-3.0 mM).

Turning to `CC(=O)SCCNC(=O)CCNC(=O)[C@H](O)C(C)(C)COP(=O)(O)OP(=O)(O)OC[C@H]1O[C@@H](n2cnc3c(N)ncnc32)[C@H](O)[C@@H]1OP(=O)(O)O` [Acetyl-CoA], the Velocity was determined as 34 in assay [1] ([Acetyl-CoA] 25 micromolar, 30 mM AMPA); 66 in assay [1] ([Acetyl-CoA] 50 micromolar); 94 in assay [1] ([Acetyl-CoA] 75 micromolar); 125 in assay [1] ([Acetyl-CoA] 100 micromolar); 150 in assay [1] ([Acetyl-CoA] 125 micromolar); 173 in assay [1] ([Acetyl-CoA] 150 micromolar). Further, the Velocity in assay [1] ([Acetyl-CoA] 175 micromolar) stood at 193; in assay [1] ([Acetyl-CoA] 200 micromolar), 219; in assay [1] ([Acetyl-CoA] 225 micromolar), 240; in assay [1] ([Acetyl-CoA] 250 micromolar), 259; in assay [1] ([Acetyl-CoA] 375 micromolar), 339; in assay [1] ([Acetyl-CoA] 390 micromolar) it was 287. In addition, the Velocity is 331 in assay [1] ([Acetyl-CoA] 520 micromolar); 352 in assay [1] ([Acetyl-CoA] 650 micromolar); 372 in assay [1] ([Acetyl-CoA] 780 micromolar); 397 in assay [1] ([Acetyl-CoA] 910 micromolar); 411 in assay [1] ([Acetyl-CoA] 1040 micromolar); 425 in assay [1] ([Acetyl-CoA] 1170 micromolar). In assay [1] ([Acetyl-CoA] 1300 micromolar), the Velocity turned out to be 434. Also, the “apparent Vmax” value in assay [1] (acetyl-CoA substrate, Lineweaver-Burk plot) is on record as “about 824 U/mg protein”. Also, the Km in assay [1] (read-out: apparent Km of PhnO for acetyl-CoA as a substrate, 30 mM AMPA, Lineweaver-Burk plot of Table 9 data) lay within 375 to 390 µM. Moreover, the “[^14C]-AMPA % Conversion” value in assay [2] (acyl donor 0.1 mM) is reported as 79.2%; in assay [2] (acyl donor 0.5 mM), 98.7%; in assay [2] (acyl donor 1 mM) it was 100.00%. Besides, the entries for the “% Activity” value in assay [2] (acyl donor 0.1 mM), in assay [2] (acyl donor 0.5 mM) and in assay [2] (acyl donor 1 mM) were 79.2%, 98.7% and 100.00%, respectively.
Consider “N-acetyl-amino-methyl-phosphonate [N-acetyl AMPA]”, for which the “growth of tobacco callus tissue” value in assay [3] is reported as “not inhibited”. Further, the Germinating root length in assay [4] (0.10 mM) is recorded as 5.9 ± 1.4 cm; in assay [4] (0.30 mM) it was 5.2 ± 1.2 cm; in assay [4] (1.00 mM), 5.4 ± 1.5 cm; in assay [4] (3.00 mM), 5.9 ± 1.6 cm. Further, the Germinating shoot length was determined as 12.0 ± 2.4 cm in assay [4] (0.10 mM), 11.7 ± 3.5 cm in assay [4] (0.30 mM), 12.2 ± 3.2 cm in assay [4] (1.00 mM) and 11.2 ± 2.6 cm in assay [4] (3.00 mM). Further, the “inhibition of root elongation” value in assay [4] (setting [6]) is “only mildly inhibitory”. Moreover, the inhibition of shoots entry in assay [4] (setting [6]) is “not inhibitory”. The “concentration with no significant effects to immature embryo germination” value in assay [4] (in vivo) was “less than 3.0 mM”.

B1: CTP-PhnO peptide: chloroplast transit peptide fused to PhnO (SEQ ID NO:12) (protein)
chain: MASSMLSSATMVASPAQATMVAPFNGLKSSAAFPATRKANNDITSITSNGGRVNCMQVWPPIGKKKFETLSYLPDLTDSGGRVNCMQAMAACELRPATQYDTDAVYALICELKQAEFDHHAFRVGFNANLRDPNMRYHLALLDGEVVGMIGLHLQFHLHHVNWIGEIQELVVMPQARGLNVGSKLLAWAEEEARQAGAEMTELSTNVKRHDAHRFYLREGYEQSHFRFTKAL
On to B1, for which the “AMPA acyltransferase activity of cell lysates” value in assay [5] is given as “retain full enzymatic acyltransferase activity”.
